Results published in patent publication US20240041842A1, “PHARMACEUTICAL COMPOSITION FOR INHIBITING CANCER METASTASIS” (INDUSTRY-ACADEMIC COOPERATION FOUNDATION, YONSEI UNIVERSITY, priority 2021, published 2024).

Legend:
Type in all cases: cell-based, human
Snail [1] = experiment: Western blot of Snail protein
Method: (§1) Cells were harvested, washed with PBS, and lysed on ice with RIPA buffer containing protease and phophatase inhibitor cocktail (GenDEPOT). After 15 minutes of incubation, the cell lysates were centrifuged at 15,000 rpm at 4° C. for 10 minutes. Protein concentration was measured by Bradford assay (Bio-rad, 500-0006). Equal amounts of total protein were placed on an SDS gel electrophoresis and transferred to a PVDF membrane (Bio-rad). The membrane was blocked with 5% skim milk for 1 hour at room temperature and incubated overnight at 4° C. with primary antibody in a buffer containing 0.1% Tween-20. Subsequently, the membrane was washed three times with Tween-PBS buffer and incubated for 1 hour at room temperature using a secondary antibody diluted in blocking buffer containing 0.1% Tween-20. Subsequently, the membrane was washed three times for 10 minutes each using Tween-TBS. Densitometry of Western blots was measured using ImageJ software.
[…] For autophagy activation, cells were'treated with 2 μM rapamycin (Selleckchem, S1039) for 5 hours. Modulation of intracellular ROS was performed with N-acetyl-cysteine (10 mM) (Sigma, A7250), hydrogen peroxide solution (100 μM to 200 μM) (Sigma, 216763), or CDDO-ME NRF2 activator (50 nM, 100 nM) (Sellckchem, S8078) for 4 to 24 hours. Intercellular calcium signal control was performed for 1 hour using BAPTA-AM (20 μM) (Sigma, A1076) or Calmidazolium Chloride (2.5 μM) (Sigma, C3930). […] For TFEB protein phosphorylation, tacrolimus (1 μM) (Selleckchem, S5003) was treated for 1 hour. […] During siRNA treatment, each siRNA was treated to a concentration of 40 to 50 nM and treated together with Lipofectamine RNAiMax (Thermo Fisher Scientific, 13778150) for transformation, and were used for experiments 48 to 72 hours later. For cDNA treatment, each cDNA was treated to a concentration of 1 to 2 μg in a 6-well plate and treated with Lipofectamine 2000 (Thermo Fisher Scientific, 11668019) for transformation, and were used for experiments 24 hours later.

TFEB [2] = experiment: Immunofluorescence of TFEB localization; details: HBEC-KL; 10 mM acetate 24 hours or 3 uM SAHA 5 hours
Method: Cells were seeded onto coated glass coverslips and maintained in ACL medium for 48 hours. After washing the cells three times with PBS. they were incubated in 3.7% paraformaldehyde for 10 minutes and fixed. Thereafter, the cells were washed three times with PBS and subjected to cell permeabilizaton in PBS containing 0.1% Triton X-100 for 10 minutes. After washing with PBS three times, the sample was blocked for 30 minutes at room temperature with PBS containing 0.1% Triton X-100 and 5% goat serum. Samples were incubated with primary antibody (1:150). followed by incubation with anti-rabbit/mouse Alexa Fluor 488/568 secondary antibody (Thermo Fisher Scientific, A-11001, 11004, 11008. 11011) and ProLong Gold Antifade Mountant with DAPI (Thermo Fisher Scientific, P36931), Images were taken with an Axio imager M2 microscope (Carl Zeiss, […]) equipped with a 63× oil objective and analyzed with ZEN version 3.0 software.

acetylated Snail = experiment: Immunoprecipitation-immunoblot of acetylated Snail; details: HBEC-KL
Method: (§2) Cell lysates (1 μg protein) were incubated overnight at 4° C. on anti-FLAG® M2 Affinity Gel (Sigma, A2220) or anti-acetyl-lysine antibody coated agarose (ImmuneChem Pharmaceuticals, ICP0388). The immunoprecipitate was then washed three times in IP buffer, and the immunoprecipitated complex was dissolved and separated by boiling in IP buffer for 5 minutes.
For SDS-PAGE electrophoresis, the immunoprecipitated complex was transferred to a nitrocellulose membrane and the membrane was blocked and then incubated for 1 hour at room temperature with Primary antibody and secondary antibody (VeriBlot for IP Detection Reagent (HRP) (Abcam, #ab131366), and anti-mouse IgG tor IP (HRP) (Abeam, #ab131368)).
After washing 3 times, the membrane was incubated with the secondary antibody.

HBEC-KL cell line = experiment: Matrigel invasion assay, HBEC-KL cell line
Method: (§3) For the 2D invasion assay, the inserts were pre-coated with 300 μg/ml Matrigel (Coming, 354234). After staining with […] dye (Bio-Rad, 1450013), 1×10^5 live cells per 8-um-pore cell-culture insert (Costar. 3422) were seeded in 0.5% ACL medium. 10% ACL medium was added to the outside of the insert. In the case of lung cancer and pancreatic cancer cell lines, after inoculation in 1% RPMI medium, 20% RPMI medium was added to the outside of the insert. Plates were incubated for 24 hours at 37° C. After incubation, the insert was fixed with 3.7% PFA, washed, stained with 0.4% crystal violet, and the upper membrane was washed and dried.

TFEB [3] = experiment: Western blot / immunoprecipitation-immunoblot of TFEB (acetylated, phosphorylated, total); details: HBEC-KL; for reduced TFEB protein level in the chloroquine (CQ) treatment condition: 50 uM CQ 24 hours with 10 mM acetate 24 hours or 3 uM SAHA 15 hours; for acetylated TFEB level / phosphorylated TFEB level / total TFEB protein level: 10 mM acetate 24 hours or 3 μM SAHA
Method: FIG. 11J illustrates a diagram of immunoblot results of the […] a control (left), and the immunoprecipitation-immunoblot result of TFEB acetylated HBEC-KL cells under the same conditions (right) is also shown,
as §1
as §2, with “For immunoprecipitation, equal amounts of lysate and Co-IP buffer (40 mM HEPES, pH 7.4, 120 mM NaCl, 2 mM EDTA, 0.3% CHAPS (Sigma, 10810118001), 10 mM pyrophosphate (Sigma, 221368), 10 mM glycerophosphate (Sigma, G9422), 50 mM NaF, phosphatase and protease inhibitor mixture) were mixed. Cell” for “Cell”

LC3 = experiment: Autophagic flux (LC3 Western blot, mRFP-GFP-LC3 lysosomal delivery assay); details: HBEC-KL; 10 mM acetate 24 hours or 3 uM SAHA
Method: as §1, with “Representative GFP-LC3, RFP-LC3 and overlapping images are shown. In addition, red puncta (mRFP+/GFP−) and yellow puncta (mRFP+/GFP+) per cell were quantified and graphed (n=15 cells/treatment). Cells” for “Cells”

TFEB gene = experiment: Real-time PCR of TFEB gene; details: HBEC-KL; 10 mM acetate 24 hours or 3 uM SAHA 15 hours
Method: At 72 hours after siRNA transfection (post-transfection) and 12 to 24 hours after chemical treatment, total RNA was isolated with the RNeasy miniprep kit (QIAGEN, 74134). After synthesizing complementary DNA (cDNA) using the TOPscript·8 cDNA synthesis kit (Enzynomics, EZ0054), gRT-PCR was performed with TCPreal™ gRCR 2× PreMIX (SYBR Green with low ROX) (Enzynomics, RT501M). GAPDH and beta-actin were used for RNA normalization. qRT-PCR was performed with a StepOne Plus (Applied Biosystems) instrument.

SNAI1 gene = experiment: Real-time PCR of SNAI1 gene; details: HBEC-KL; 10 mM acetate, 24 hours
Method: After synthesizing complementary DNA (cDNA) using the TOPscript·8 cDNA synthesis kit (Enzynomics, EZ0054), gRT-PCR was performed with TCPreal™ gRCR 2× PreMIX (SYBR Green with low ROX) (Enzynomics, RT501M). GAPDH and beta-actin were used for RNA normalization. qRT-PCR was performed with a StepOne Plus (Applied Biosystems) instrument.

phospho-RPS6 (p-S6) = experiment: Western blot of phospho-RPS6 (p-S6); details: HBEC-KL; acetate or SAHA treatment
Method: as §1

TFEB (CLEAR network) = experiment: CLEAR motif-driven luciferase reporter assay; details: HBEC-KL
Method: To compare the TFEB reporter activity with other cell lines (HBEC30KT, HBEC-K, and HBEC-KL), the pGL4.70 5× CLEAR Rluc and pSt4.14 Fluc vectors were transiently co-transfected and normalized luciferase activity was measured in Dual-Measured by Luciferase® Reporter Assay System (Promega, E1910),

Snail [4] = experiment: Western blot of Snail protein; details: HBEC-KL
Snail [5] = experiment: Immunoprecipitation-immunoblot of phosphorylated/acetylated or K48 polyubiquitinated Snail in A549 cells; details: 25 uM C646 or 3 uM SAHA
Method: FIG. 9K illustrates the immunoprecipitation-immunoblot result of phosphorylated/acetylated or K48 polyubiquitinated Snail assay after transfection of wild-type Snail (pFLAG-Snail WT) or acetylation-defective Snail mutant (pFLAG-SnailK146R) into A549 cells and/or treatment with 25 uM C646.
FIG. 9L illustrates the immunoprecipitation-immunoblot results of the polyubiquitinated Snail assay after transfection of HA-ubiquitin and wild-type Snail (pFLAG-Snail WT) or acetylation-defective Snail mutant (pFLAG-SnailK146R) into A549 cells and/or treatment with 25 uM C646 for 2 hours (left) and/or treatment of 3 uM SAHA for 5 hours (right).
as §2, with “For immunoprecipitation, equal amounts of lysate and Co-IP buffer (40 mM HEPES, pH 7.4, 120 mM NaCl, 2 mM EDTA, 0.3% CHAPS (Sigma, 10810118001), 10 mM pyrophosphate (Sigma, 221368), 10 mM glycerophosphate (Sigma, G9422), 50 mM NaF, phosphatase and protease inhibitor mixture) were mixed. Cell” for “Cell”

KL cell lines = experiment: Matrigel invasion assay, KL cell lines; details: in two of the three KL cell lines; AMG-510 1 uM
Method: as §3

β-catenin = experiment: Western blot of β-catenin; details: HBEC-KL; CHIR99021 3 uM, 5 hours, in the presence of 50 uM CQ
Method: as §1, with “FIG. 5K illustrates the expression level of Snail protein after treatment with the GSK3β inhibitor CHIR99021 (3 uM, treatment for 5 hours) in the presence of 50 uM chloroquine (CQ) in the HBEC-KL cell line. Cells” for “Cells”

Compound | level of nuclear-localized TFEB (TFEB [2]) | reduced TFEB protein level in the chloroquine (CQ) treatment condition (TFEB [3]) | acetylated TFEB level (TFEB [3]) | phosphorylated TFEB level (TFEB [3]) | total TFEB protein level (TFEB [3]) | autophagy flux (LC3) | TFEB mRNA level (TFEB gene) | level of phospho-RPS6 (p-S6) (phospho-RPS6 (p-S6)) | further results
CC(=O)[O-].[Na+] [acetate, sodium acetate] | increased | partially restored | increased | increased | increased | increased | no significant change | kept constant | Snail protein expression levels (Snail [1]; HBEC-KL, acetate, 24 hours): increased; level of acetylated Snail (acetylated Snail; 10 mM acetate, 24 hours): increased; invasiveness (HBEC-KL cell line; KL cells (HBEC-KL), 10 mM acetate, 24 hours): increased; Snail mRNA expression levels (SNAI1 gene): no effect
O=C(CCCCCCC(=O)Nc1ccccc1)NO [SAHA, vorinostat] | increased | partially restored | increased | increased | increased | increased | no significant change | kept constant | level of acetylated Snail (acetylated Snail; 3 uM SAHA, 15 hours): increased; CLEAR activity under FK506 treatment (TFEB (CLEAR network); 1 uM FK506 with 10 mM acetate 24 hours or 3 uM SAHA 15 hours): increased; CLEAR activity (TFEB (CLEAR network); 10 mM acetate 24 hours or 3 uM SAHA 5 hours): increased; degree of matrigel-infiltration (HBEC-KL cell line; HBEC-KL, SAHA): increased; Snail reduction by chloroquine (CQ), upon SAHA treatment (Snail [4]; 3 uM SAHA and 50 uM CQ, 24 hours): restored; K48 polyubiquitination of wild-type Snail (Snail [5]; pFLAG-Snail WT): reduced; phosphorylation of wild-type Snail (Snail [5]; pFLAG-Snail WT): reduce; phosphorylation and acetylation of K146R Snail (Snail [5]; pFLAG-SnailK146R): did not affect
C=CC(=O)N1CCN(c2nc(=O)n(-c3c(C)ccnc3C(C)C)c3nc(-c4c(O)cccc4F)c(F)cc23)[C@@H](C)C1 [AMG-510] | – | – | – | – | – | – | – | – | Snail expression level (Snail [1]; in two of the three KL cell lines, AMG-510 1 uM, 48 hours): increased; cell invasiveness (KL cell lines): increased
Cc1c[nH]c(-c2cnc(NCCNc3ccc(C#N)cn3)nc2-c2ccc(Cl)cc2Cl)n1 [CHIR99021] | – | – | – | – | – | – | – | – | expression levels of β-catenin under autophagy inhibition (β-catenin): restored; levels of Snail protein under autophagy inhibition (Snail [4]; CHIR99021 3 uM, 5 hours, in the presence of 50 uM CQ): did not restore
